The source of these data is patent US10196390B2, “TYK2 inhibitors and uses thereof” (Nimbus Lakshmi, Inc., priority 2014, dated 2019).

In one assay the target is JAK2 (Homo sapiens (Human), UniProt O60674). Kind of assay: JAK2 activity inhibition assay (radioactive kinase assay / Caliper assay). The format is biochemical. The conditions noted are these: read-out: JAK2 Ki. As to the method: The caliper machine employs an off chip mobility shift assay to detect phosphorylated peptide substrates from kinase assays, using microfluidics technology. […] Compounds are serially diluted in DMSO then further diluted in assay buffer (25 mM HEPES, pH 7.5, 0.01% Brij-35, 0.01% Triton, 0.5 mM EGTA). 5 ul of diluted compound was added into wells first, then 10 ul of enzyme mix was added into wells, followed by 10 uL of substrate mix (peptide and ATP in 10 mM MgCl2) to start reaction. Reaction was incubated at 28° C. for 25 min and then added 25 ul stop buffer (100 mM HEPES, 0.015% Brij-35, 50 mM EDTA), followed by reading with Caliper.

Another assay addresses TYK2 (Homo sapiens (Human), UniProt P29597). The assay can be described thus: Tyk2 activity inhibition assay (radioactive kinase assay / Caliper assay). The class given is biochemical. As to the method: Peptide substrate, [[…]], (20 μM) is prepared in reaction buffer (20 mM Hepes pH 7.5, 10 mM MgCl2, 1 mM EGTA, 0.02% Brij35, 0.02 mg/mL BSA, […], 2 mM DTT, 1% DMSO. TYK2 (Invitrogen) kinase is added, followed by compounds in DMSO. 33PATP is added to initiate the reaction in ATP at 10 μM. Kinase reaction is incubated for 120 min at room temp and reactions are spotted onto P81 ion exchange paper (Whatman #3698-915), and then washed extensively in 0.75% phosphoric acid, prior to reading the radioactivity counts. For JAK2 (Invitrogen) kinase assay the peptide substrate poly[Glu:Tyr](4:1), 0.2 mg/ml is used, in the reaction carried out the same as for TYK2.
The caliper machine employs an off chip mobility shift assay to detect phosphorylated peptide substrates from kinase assays, using microfluidics technology. The assays are carried out at ATP concentration equivalent to the ATP Km, and at 1 mM ATP. Compounds are serially diluted in DMSO then further diluted in assay buffer (25 mM HEPES, pH 7.5, 0.01% Brij-35, 0.01% Triton, 0.5 mM EGTA). 5 ul of diluted compound was added into wells first, then 10 ul of enzyme mix was added into wells, followed by 10 uL of substrate mix (peptide and ATP in 10 mM MgCl2) to start reaction. Reaction was incubated at 28° C. for 25 min and then added 25 ul stop buffer (100 mM HEPES, 0.015% Brij-35, 50 mM EDTA), followed by reading with Caliper. JAK2 at 1 nM final concentration and TYK2 at 9.75 nM are from Carna, and substrates used are ATP at 20 and 16 uM, respectively. JAK2 assay uses peptide 22 and TYK2 uses peptide 30 (Caliper), each at 3 uM.

TYK2, sequence (P29597 whole entry): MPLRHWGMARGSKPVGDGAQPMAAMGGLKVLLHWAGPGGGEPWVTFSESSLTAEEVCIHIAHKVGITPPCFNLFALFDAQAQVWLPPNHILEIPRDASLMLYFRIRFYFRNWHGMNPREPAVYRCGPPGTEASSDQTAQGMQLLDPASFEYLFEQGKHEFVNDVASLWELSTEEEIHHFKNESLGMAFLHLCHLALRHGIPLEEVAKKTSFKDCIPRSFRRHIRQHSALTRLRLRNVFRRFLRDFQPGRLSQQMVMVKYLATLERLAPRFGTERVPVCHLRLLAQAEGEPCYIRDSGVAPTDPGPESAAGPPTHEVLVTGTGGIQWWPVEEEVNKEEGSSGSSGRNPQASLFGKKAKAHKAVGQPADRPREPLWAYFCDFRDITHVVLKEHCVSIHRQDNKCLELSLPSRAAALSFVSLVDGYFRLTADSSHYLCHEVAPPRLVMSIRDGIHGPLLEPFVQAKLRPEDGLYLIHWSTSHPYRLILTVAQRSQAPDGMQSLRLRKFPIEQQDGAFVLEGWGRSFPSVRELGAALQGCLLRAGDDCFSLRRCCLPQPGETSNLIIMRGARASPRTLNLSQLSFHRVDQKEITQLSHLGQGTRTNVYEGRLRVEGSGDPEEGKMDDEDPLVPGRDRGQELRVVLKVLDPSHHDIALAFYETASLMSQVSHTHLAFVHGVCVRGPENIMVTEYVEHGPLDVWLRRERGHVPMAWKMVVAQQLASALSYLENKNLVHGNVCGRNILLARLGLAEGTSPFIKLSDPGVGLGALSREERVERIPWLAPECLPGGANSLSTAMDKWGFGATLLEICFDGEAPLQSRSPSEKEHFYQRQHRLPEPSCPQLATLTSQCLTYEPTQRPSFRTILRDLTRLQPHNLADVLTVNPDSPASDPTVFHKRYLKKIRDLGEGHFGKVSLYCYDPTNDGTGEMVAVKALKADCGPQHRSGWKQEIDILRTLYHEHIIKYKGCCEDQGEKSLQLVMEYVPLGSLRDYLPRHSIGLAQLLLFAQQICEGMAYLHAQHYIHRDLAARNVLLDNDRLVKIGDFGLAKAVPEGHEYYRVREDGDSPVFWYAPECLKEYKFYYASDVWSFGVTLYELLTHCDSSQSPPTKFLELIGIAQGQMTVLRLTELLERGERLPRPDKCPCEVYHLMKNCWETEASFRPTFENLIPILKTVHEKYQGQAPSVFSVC
JAK2, sequence (O60674 whole entry): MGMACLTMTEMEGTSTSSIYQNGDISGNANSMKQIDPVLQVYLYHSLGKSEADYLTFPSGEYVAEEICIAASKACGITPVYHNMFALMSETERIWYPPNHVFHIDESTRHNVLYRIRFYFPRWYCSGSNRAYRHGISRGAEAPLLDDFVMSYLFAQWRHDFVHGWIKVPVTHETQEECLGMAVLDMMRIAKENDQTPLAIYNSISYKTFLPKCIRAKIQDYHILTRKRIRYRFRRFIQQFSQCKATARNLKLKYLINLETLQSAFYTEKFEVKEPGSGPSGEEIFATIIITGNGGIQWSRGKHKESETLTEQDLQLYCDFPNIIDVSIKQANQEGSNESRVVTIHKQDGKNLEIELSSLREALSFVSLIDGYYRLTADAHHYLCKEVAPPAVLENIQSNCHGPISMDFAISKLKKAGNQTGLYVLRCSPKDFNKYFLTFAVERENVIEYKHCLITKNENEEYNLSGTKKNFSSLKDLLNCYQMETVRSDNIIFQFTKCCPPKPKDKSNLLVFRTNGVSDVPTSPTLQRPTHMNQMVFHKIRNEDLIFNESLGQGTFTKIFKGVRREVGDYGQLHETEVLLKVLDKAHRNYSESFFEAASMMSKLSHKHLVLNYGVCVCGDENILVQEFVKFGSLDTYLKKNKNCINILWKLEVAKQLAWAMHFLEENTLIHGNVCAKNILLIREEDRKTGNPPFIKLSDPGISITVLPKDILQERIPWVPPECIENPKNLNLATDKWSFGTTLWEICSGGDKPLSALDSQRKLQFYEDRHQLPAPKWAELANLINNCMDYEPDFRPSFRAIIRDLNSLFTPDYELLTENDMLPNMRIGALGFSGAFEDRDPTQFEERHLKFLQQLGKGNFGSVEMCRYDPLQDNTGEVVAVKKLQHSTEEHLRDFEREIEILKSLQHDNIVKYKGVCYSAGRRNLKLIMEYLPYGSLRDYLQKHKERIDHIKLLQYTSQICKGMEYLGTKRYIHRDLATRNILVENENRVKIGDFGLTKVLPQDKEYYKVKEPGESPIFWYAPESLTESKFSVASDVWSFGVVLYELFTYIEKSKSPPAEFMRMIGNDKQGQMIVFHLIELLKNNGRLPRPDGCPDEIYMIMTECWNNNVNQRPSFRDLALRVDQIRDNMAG

Regarding `O=C(Cc1ccc(Nc2nc(-c3c(F)cccc3F)nc3c2C(=O)NC3)cn1)NC1CCNCC1` [Compound I-19, 2-(5-((2-(2,6-difluorophenyl)-5-oxo-6,7-dihydro-5H-pyrrolo[3,4-d]pyrimidin-4-yl)amino)pyridin-2-yl)-N-(piperidin-4-yl)acetamide], the values for the inhibitory constant (Ki) at JAK2 and on TYK2 were above 1000 nM and 100 to 1000 nM, respectively.
The like results for `CN(C(=O)Cc1ccc(Nc2nc(-c3c(F)cccc3F)nc3c2C(=O)NC3)cc1)C1CCNCC1` [Compound I-22, 2-(4-((2-(2,6-difluorophenyl)-5-oxo-6,7-dihydro-5H-pyrrolo[3,4-d]pyrimidin-4-yl)amino)phenyl)-N-methyl-N-(piperidin-4-yl)acetamide] were, in that order, 10 to 100 nM and below 10 nM.
`CCNC(=O)Cc1ccc(Nc2nc(-c3c(F)cccc3F)nc3c2C(=O)NC3)cn1` [Compound I-23, 2-(5-((2-(2,6-difluorophenyl)-5-oxo-6,7-dihydro-5H-pyrrolo[3,4-d]pyrimidin-4-yl)amino)pyridin-2-yl)-N-ethylacetamide]: the results for the Ki at JAK2 and on TYK2 were above 1000 nM and 10 to 100 nM, respectively.
As to `O=C(Cc1ccc(Nc2nc(-c3c(F)cccc3F)nc3c2C(=O)NC3)cc1)N[C@@H]1CCCNC1` [Compound I-61, (R)-2-(4-((2-(2,6-difluorophenyl)-5-oxo-6,7-dihydro-5H-pyrrolo[3,4-d]pyrimidin-4-yl)amino)phenyl)-N-(piperidin-3-yl)acetamide], the Ki (in general, the dissociation constant of the complex between target and ligand, obtained from inhibition or displacement) was 100 to 1000 nM on JAK2 and below 10 nM at TYK2.
Turning to `O=C1NCc2nc(-c3c(F)cccc3F)nc(Nc3ccc(CC(=O)N4CC5(COC5)C4)cc3)c21` [Compound I-62, 2-(2,6-difluorophenyl)-4-((4-(2-oxo-2-(2-oxa-6-azaspiro[3.3]heptan-6-yl)ethyl)phenyl)amino)-6,7-dihydro-5H-pyrrolo[3,4-d]pyrimidin-5-one], the values for the Ki on JAK2 and on TYK2 were 100 to 1000 nM and below 10 nM, respectively.
For the compound `C[C@H](CO)NC(=O)Cc1ccc(Nc2nc(-c3c(F)cccc3F)nc3c2C(=O)NC3)cc1` [Compound I-63, (R)-2-(4-((2-(2,6-difluorophenyl)-5-oxo-6,7-dihydro-5H-pyrrolo[3,4-d]pyrimidin-4-yl)amino)phenyl)-N-(1-hydroxypropan-2-yl)acetamide], the Ki at JAK2 was 100 to 1000 nM; at TYK2, below 10 nM.
Turning to `O=C1NCc2nc(-c3c(F)cccc3F)nc(Nc3cnn(CC(=O)N4CCC[C@H]4CO)c3)c21` [Compound I-68, (S)-2-(2,6-difluorophenyl)-4-((1-(2-(2-(hydroxymethyl)pyrrolidin-1-yl)-2-oxoethyl)-1H-pyrazol-4-yl)amino)-6,7-dihydro-5H-pyrrolo[3,4-d]pyrimidin-5-one], the inhibition constant Ki on JAK2 is above 1000 nM; on TYK2, 10 to 100 nM.
The like results for `CCNC(=O)Cn1cc(Nc2nc(-c3c(F)cccc3F)nc3c2C(=O)NC3)cn1` [Compound I-69, 2-(4-((2-(2,6-difluorophenyl)-5-oxo-6,7-dihydro-5H-pyrrolo[3,4-d]pyrimidin-4-yl)amino)-1H-pyrazol-1-yl)-N-ethylacetamide] were, in that order, above 1000 nM and 10 to 100 nM.
With `C[C@H](CO)NC(=O)Cn1cc(Nc2nc(-c3c(F)cccc3F)nc3c2C(=O)NC3)cn1` [Compound I-70, (R)-2-(4-((2-(2,6-difluorophenyl)-5-oxo-6,7-dihydro-5H-pyrrolo[3,4-d]pyrimidin-4-yl)amino)-1H-pyrazol-1-yl)-N-(1-hydroxypropan-2-yl)acetamide], the Ki on JAK2 is above 1000 nM; at TYK2, 10 to 100 nM.
On to `O=C(O)Cn1cc(Nc2nc(-c3c(F)cccc3F)nc3c2C(=O)NC3)cn1` [Compound I-71, 2-(4-((2-(2,6-difluorophenyl)-5-oxo-6,7-dihydro-5H-pyrrolo[3,4-d]pyrimidin-4-yl)amino)-1H-pyrazol-1-yl)acetic Acid], for which the Ki on JAK2 is above 1000 nM; at TYK2 it was 10 to 100 nM.
`O=C(Cc1ccc(Nc2nc(-c3c(F)cccc3F)nc3c2C(=O)NC3)cc1)NCC1CNC1` [Compound I-72, N-(azetidin-3-ylmethyl)-2-(4-((2-(2,6-difluoro-phenyl)-5-oxo-6,7-dihydro-5H-pyrrolo[3,4-d]pyrimidin-4-yl)amino)-phenyl)acetamide]: the Ki at JAK2 was 100 to 1000 nM; at TYK2, below 10 nM.
For the compound `O=C(Cc1ccc(Nc2nc(-c3c(F)cccc3F)nc3c2C(=O)NC3)cc1)N[C@@H]1CCNC1` [Compound I-73, (R)-2-(4-((2-(2,6-difluorophenyl)-5-oxo-6,7-dihydro-5H-pyrrolo[3,4-d]pyrimidin-4-yl)amino)phenyl)-N-(pyrrolidin-3-yl)acetamide], the figures for the Ki at JAK2 and at TYK2 were 100 to 1000 nM and below 10 nM, respectively.
With `C[C@@H](CO)NC(=O)Cc1ccc(Nc2nc(-c3c(F)cccc3F)nc3c2C(=O)NC3)cc1` [Compound I-74, (S)-2-(4-((2-(2,6-difluorophenyl)-5-oxo-6,7-dihydro-5H-pyrrolo[3,4-d]pyrimidin-4-yl)amino)phenyl)-N-(1hydroxypropan-2-yl)acetamide], the results for the Ki on JAK2 and on TYK2 were 100 to 1000 nM and below 10 nM, respectively.
With `C[C@H](O)CNC(=O)Cc1ccc(Nc2nc(-c3c(F)cccc3F)nc3c2C(=O)NC3)cc1` [Compound I-75, (S)-2-(4-((2-(2,6-difluorophenyl)-5-oxo-6,7-dihydro-5H-pyrrolo[3,4-d]pyrimidin-4-yl)amino)phenyl)-N-(2-hydroxy-propyl)acetamide], the Ki is 100 to 1000 nM on JAK2 and below 10 nM at TYK2.
As to `CC(C)(O)CNC(=O)Cc1ccc(Nc2nc(-c3c(F)cccc3F)nc3c2C(=O)NC3)cc1` [Compound I-76, 2-(4-((2-(2,6-difluorophenyl)-5-oxo-6,7-dihydro-5H-pyrrolo[3,4-d]pyrimidin-4-yl)amino)phenyl)-N-(2-hydroxy-2-methylpropyl)acetamide], the Ki on JAK2 is 10 to 100 nM; on TYK2, below 10 nM.
Turning to `C[C@@H](O)CNC(=O)Cc1ccc(Nc2nc(-c3c(F)cccc3F)nc3c2C(=O)NC3)cc1` [Compound I-77, (R)-2-(4-((2-(2,6-difluorophenyl)-5-oxo-6,7-dihydro-5H-pyrrolo[3,4-d]pyrimidin-4-yl)amino)phenyl)-N-(2-hydroxy-propyl)acetamide], the Ki at JAK2 was 100 to 1000 nM; at TYK2, below 10 nM.
For `O=C(Cc1ccc(Nc2nc(-c3c(F)cccc3F)nc3c2C(=O)NC3)cc1)NCCO` [Compound I-79, 2-(4-((2-(2,6-difluorophenyl)-5-oxo-6,7-dihydro-5H-pyrrolo[3,4-d]pyrimidin-4-yl)amino)phenyl)-N-(2-hydroxy-ethyl)acetamide], the values for the Ki on JAK2 and at TYK2 were 100 to 1000 nM and below 10 nM, respectively.
On to `O=C(Cc1ccc(Nc2nc(-c3c(F)cccc3Cl)nc3c2C(=O)NC3)cc1)N[C@@H]1CCNC1` [Compound I-81, (R)-2-(4-((2-(2-chloro-6-fluorophenyl)-5-oxo-6,7-dihydro-5H-pyrrolo[3,4-d]pyrimidin-4-yl)amino)phenyl)-N-(pyrrolidin-3-yl)acetamide], for which the Ki is 100 to 1000 nM at JAK2 and below 10 nM at TYK2.
The like results for `O=C(O)Cc1ccc(Nc2nc(-c3c(F)cccc3C(F)(F)F)nc3c2C(=O)NC3)cc1` [Compound I-82, 2-(4-((2-(2-fluoro-6-(trifluoromethyl)phenyl)-5-oxo-6,7-dihydro-5H-pyrrolo[3,4-d]pyrimidin-4-yl)amino)phenyl)acetic Acid] were, in that order, above 1000 nM and 10 to 100 nM.
The like results for `O=C(Cc1ccc(Nc2nc(-c3c(F)cccc3C(F)(F)F)nc3c2C(=O)NC3)cc1)NC1CCNCC1` [Compound I-83, 2-(4-((2-(2-fluoro-6-(trifluoromethyl)phenyl)-5-oxo-6,7-dihydro-5H-pyrrolo[3,4-d]pyrimidin-4-yl)amino)phenyl)-N-(piperidin-4-yl)acetamide] were, in that order, 100 to 1000 nM and 10 to 100 nM.
Take `O=C1NCc2nc(-c3c(F)cccc3F)nc(Nc3ccc(CC(=O)N4CCS(=O)(=O)CC4)cc3)c21` [Compound I-84, 2-(2,6-difluorophenyl)-4-((4-(2-(1,1-dioxidothiomorpholino)-2-oxoethyl)phenyl)amino)-6,7-dihydro-5H-pyrrolo[3,4-d]pyrimidin-5-one]: the results for the Ki on JAK2 and on TYK2 were 10 to 100 nM and below 10 nM, respectively.
Regarding `O=C(O)Cc1ccc(Nc2nc(-c3c(F)cncc3F)nc3c2C(=O)NC3)cc1` [Compound I-85, 2-(4-((2-(3,5-difluoropyridin-4-yl)-5-oxo-6,7-dihydro-5H-pyrrolo[3,4-d]pyrimidin-4-yl)amino)phenyl)acetic Acid], the figures for the inhibition constant (Ki) at JAK2 and on TYK2 were above 1000 nM and 10 to 100 nM, respectively.
